Holding throughout (assay type): cell-based
One experiment deals with T1, EGFR L858R-T790M-C797S (Homo sapiens, UniProt P00533, C797S/L858R/T790M).
T1 construct: generated using CRISPR technology to introduce the additional C797S mutation by Horizon Discovery; host or cells: NCI-H1975+CS (CRISPR knock-in of C797S)
In words: EGFR degradation, Total EGFR (L858R-specific) HTRF, NCI-H1975+CS. To be noted: 6 hours, Total EGFR HTRF. From the text:
NCI-H1975 (harboring EGFR heterozygous L858R-T790M mutations) and NCI-H3255 (harboring EGFR heterozygous L858R mutation) were purchased from ATCC and NCI, respectively. NCI-H1975+CS (harboring EGFR heterozygous L858R-T790M-C797S mutations) was generated using CRISPR technology to introduce the additional C797S mutation by Horizon Discovery. A431 (harboring EGFR wildtype) was purchased from ATCC. RPMI 1640 no-phenol red medium and fetal bovine serum (FBS) were purchased from Gibco (Grand Island, NY, USA). Cell culture flasks and 384-well microplates were acquired from VWR (Radnor, PA, USA). Phosphorylated (pY1068) EGFR and Total EGFR (using L858R-specific detection antibody and pan-EGFR antibody for EGFR mutant cell lines and EGFR wild-type cell lines, respectively) HTRF assay kits were purchased from Cisbio (Bedford, MA, USA).
Degradation of EGFR protein containing L858R mutation or wild-type was determined based on quantification of FRET signal using a Total EGFR (L858R-specific or pan-EGFR detecting) HTRF assay kit. Phospho-EGFR (pEGFR) inhibition was determined based on quantification of FRET signal using a pY1068 EGFR HTRF assay kit. In separate assay plates, test compounds were added to the 384-well plate from a top concentration of 10 μM with 11 points, half log titration in duplicates. For each assay, 12.5 uL of cells suspended in assay media (RPMI 1640 no-phenol red medium+10% FBS) at cell densities indicated for each cell line in Table 8 below were dispensed using a multi-channel pipette to 384-well low volume white HTRF microplates containing a duplicate concentration range of test compounds and DMSO controls. The plates were kept at 37° C. with 5% CO2 for 6 hours and then incubated with either phospho EGFR or Total EGFR HTRF detection antibodies according to the cell line and EGFR mutant being assayed. Cells treated in the absence of the test compound were the negative control. Positive control was set by wells containing all reagents but no cells. FRET signal was acquired on EnVision™ Multilabel Reader (PerkinElmer, Santa Clara, CA, USA). Compound concentration that achieves 50% degradation and inhibition was reported as DC50 and IC50, respectively.
(In general: TR-FRET usually uses a lanthanide donor and a delayed reading to cut background.)

A further experiment has as its target EGFR L858R (Homo sapiens, UniProt P00533, L858R). In words: EGFR degradation, Total EGFR (L858R-specific) HTRF, NCI-H3255. On the set-up: NCI-H3255 (harboring EGFR heterozygous L858R mutation); host or cells: NCI-H3255. The settings on record: NCI-H3255 cells, 6 hours, Total EGFR HTRF, read-out: H3255 EGFR DC50. The essentials:
(§1)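 FRET signal from HTRF kits measured phospho-EGFR at pY1068 or total EGFR after 6 h treatment at 37 °C. Compounds ran as 11-point half-log dilutions from 10 μM in duplicate, in cells in phenol red-free RPMI with 10% FBS. Concentrations giving 50% inhibition or degradation were reported as IC50 or DC50.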

Another experiment concerns the target T2, EGFR L858R-T790M (Homo sapiens, UniProt P00533, L858R/T790M).
T2 construct: NCI-H1975 (harboring EGFR heterozygous L858R-T790M mutations); host or cells: NCI-H1975
Nature of the experiment: EGFR degradation, Total EGFR (L858R-specific) HTRF, NCI-H1975. To be noted: NCI-H1975 cells, 6 hours, Total EGFR HTRF, read-out: H1975 EGFR DC50. In a few lines:
as §1

[1] abbreviates: Table 9A, NCI-H1975+CS cells, read-out: H1975+ CS EGFR DC50.
Setting [2] is: Table 9B, NCI-H1975 C797S clone, read-out: H1975 C797S clone EGFR DC50.

SMILES strings stand for the structures. Like-named read-outs stand apart in the source and are kept apart here. Bounds are passed on as bounds.

T1 sequence (P00533 25-1210 T790M/C797S/L858R): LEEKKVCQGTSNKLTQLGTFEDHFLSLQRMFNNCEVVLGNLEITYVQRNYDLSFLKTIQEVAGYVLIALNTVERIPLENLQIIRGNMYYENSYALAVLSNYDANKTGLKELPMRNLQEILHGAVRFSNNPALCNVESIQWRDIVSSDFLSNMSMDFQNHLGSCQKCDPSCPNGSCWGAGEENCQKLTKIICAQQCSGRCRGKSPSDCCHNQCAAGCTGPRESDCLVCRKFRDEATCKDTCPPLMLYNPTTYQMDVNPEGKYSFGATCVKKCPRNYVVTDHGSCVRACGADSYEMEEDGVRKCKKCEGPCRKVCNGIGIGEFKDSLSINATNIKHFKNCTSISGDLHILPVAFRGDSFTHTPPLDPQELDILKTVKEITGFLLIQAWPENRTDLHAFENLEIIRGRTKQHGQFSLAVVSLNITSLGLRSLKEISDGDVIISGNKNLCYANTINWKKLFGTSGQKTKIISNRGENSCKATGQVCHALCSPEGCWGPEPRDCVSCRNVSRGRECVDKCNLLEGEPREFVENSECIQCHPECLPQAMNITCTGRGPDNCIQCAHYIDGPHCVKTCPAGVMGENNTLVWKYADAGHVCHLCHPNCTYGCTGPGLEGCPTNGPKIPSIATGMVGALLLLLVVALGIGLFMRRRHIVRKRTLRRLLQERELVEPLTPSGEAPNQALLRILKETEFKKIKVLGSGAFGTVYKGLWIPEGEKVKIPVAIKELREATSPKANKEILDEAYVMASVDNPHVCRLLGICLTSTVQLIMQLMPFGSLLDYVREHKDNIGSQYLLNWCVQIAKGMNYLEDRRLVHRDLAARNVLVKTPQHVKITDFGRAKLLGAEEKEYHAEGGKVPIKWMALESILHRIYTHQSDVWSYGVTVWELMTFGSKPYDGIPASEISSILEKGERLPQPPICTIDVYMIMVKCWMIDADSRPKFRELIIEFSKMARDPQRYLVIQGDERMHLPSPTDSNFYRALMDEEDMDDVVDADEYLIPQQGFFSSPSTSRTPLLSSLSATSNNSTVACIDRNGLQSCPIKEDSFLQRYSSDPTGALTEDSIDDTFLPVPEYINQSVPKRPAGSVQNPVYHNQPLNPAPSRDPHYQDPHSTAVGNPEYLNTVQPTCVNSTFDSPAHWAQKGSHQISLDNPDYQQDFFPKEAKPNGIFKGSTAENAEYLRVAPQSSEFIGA
T2 sequence (P00533 25-1210 T790M/L858R): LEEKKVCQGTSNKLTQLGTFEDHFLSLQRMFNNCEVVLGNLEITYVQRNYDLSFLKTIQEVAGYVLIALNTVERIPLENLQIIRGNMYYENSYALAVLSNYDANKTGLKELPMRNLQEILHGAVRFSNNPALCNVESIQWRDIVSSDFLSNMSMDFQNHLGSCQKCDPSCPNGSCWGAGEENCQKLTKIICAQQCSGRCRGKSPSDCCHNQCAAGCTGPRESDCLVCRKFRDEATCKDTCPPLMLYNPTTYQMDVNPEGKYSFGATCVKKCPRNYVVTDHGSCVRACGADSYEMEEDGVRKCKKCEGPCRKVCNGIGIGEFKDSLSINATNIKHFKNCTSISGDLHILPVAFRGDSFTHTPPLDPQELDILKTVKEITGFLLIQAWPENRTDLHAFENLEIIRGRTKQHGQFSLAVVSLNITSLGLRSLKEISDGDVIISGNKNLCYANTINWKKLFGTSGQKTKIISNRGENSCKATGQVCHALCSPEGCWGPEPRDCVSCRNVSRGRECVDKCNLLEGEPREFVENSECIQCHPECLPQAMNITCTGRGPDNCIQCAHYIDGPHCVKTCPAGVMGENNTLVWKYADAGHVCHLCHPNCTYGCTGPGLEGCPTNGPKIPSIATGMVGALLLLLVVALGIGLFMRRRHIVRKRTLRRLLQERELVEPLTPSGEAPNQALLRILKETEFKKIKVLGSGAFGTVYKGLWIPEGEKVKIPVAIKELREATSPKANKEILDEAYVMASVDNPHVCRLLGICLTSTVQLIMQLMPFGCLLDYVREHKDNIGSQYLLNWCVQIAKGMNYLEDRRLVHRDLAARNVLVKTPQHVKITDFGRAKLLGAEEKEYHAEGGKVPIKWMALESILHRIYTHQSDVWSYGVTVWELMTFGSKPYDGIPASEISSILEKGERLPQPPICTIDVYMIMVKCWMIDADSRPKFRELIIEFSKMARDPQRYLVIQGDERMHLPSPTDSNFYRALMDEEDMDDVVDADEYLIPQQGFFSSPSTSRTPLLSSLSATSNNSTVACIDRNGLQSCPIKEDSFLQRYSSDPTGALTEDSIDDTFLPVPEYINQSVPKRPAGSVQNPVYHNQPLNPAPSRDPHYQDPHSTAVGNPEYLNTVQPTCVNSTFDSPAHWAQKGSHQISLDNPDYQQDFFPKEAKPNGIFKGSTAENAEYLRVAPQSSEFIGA
Sequence of EGFR L858R (P00533 25-1210 L858R): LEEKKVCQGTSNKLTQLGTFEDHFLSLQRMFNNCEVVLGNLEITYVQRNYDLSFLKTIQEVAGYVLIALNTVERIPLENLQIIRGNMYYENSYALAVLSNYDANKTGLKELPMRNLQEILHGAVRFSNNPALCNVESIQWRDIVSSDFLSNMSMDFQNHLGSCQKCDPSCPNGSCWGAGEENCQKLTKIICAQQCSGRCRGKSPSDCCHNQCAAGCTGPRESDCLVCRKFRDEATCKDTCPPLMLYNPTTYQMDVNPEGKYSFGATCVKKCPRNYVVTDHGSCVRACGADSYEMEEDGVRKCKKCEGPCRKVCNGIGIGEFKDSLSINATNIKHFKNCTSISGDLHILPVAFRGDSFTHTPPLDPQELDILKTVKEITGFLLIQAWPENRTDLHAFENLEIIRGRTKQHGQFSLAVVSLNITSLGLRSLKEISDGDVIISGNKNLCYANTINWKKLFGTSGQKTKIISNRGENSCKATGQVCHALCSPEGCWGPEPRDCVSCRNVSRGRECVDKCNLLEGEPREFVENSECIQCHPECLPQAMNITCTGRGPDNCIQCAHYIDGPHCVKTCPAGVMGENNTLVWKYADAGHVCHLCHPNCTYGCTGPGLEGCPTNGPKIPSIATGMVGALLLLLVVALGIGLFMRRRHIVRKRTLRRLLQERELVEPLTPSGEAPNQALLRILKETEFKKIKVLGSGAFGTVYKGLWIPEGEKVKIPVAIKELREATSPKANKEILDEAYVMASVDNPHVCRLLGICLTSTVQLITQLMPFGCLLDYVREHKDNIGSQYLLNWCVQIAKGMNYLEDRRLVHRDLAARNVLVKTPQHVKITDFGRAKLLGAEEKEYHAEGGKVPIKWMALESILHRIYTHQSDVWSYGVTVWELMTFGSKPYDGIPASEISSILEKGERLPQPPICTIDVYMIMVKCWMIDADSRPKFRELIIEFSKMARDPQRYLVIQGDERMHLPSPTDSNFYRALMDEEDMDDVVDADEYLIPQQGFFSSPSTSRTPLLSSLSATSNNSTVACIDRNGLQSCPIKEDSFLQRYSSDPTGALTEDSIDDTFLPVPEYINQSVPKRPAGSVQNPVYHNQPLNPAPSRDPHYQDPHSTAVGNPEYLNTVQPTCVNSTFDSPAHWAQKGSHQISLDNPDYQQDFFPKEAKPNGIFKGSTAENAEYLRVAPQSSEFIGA

Consider `O=C1CC[C@@H](Nc2ccc(C3CCN(CC(=O)N4CCC(Oc5ccc(-c6cc(F)c7c(c6)C(=O)N(C(C(=O)Nc6nccs6)c6ncn8c6CCC8)C7)cc5)CC4)CC3)cc2)C(=O)N1` (stereo partly drawn) [Compound 33, 2-(6,7-dihydro-5H-pyrrolo[1,2-c]imidazol-1-yl)-2-[6-[4-[[1-[2-[4-[4-[[(3R)-2,6-dioxo-3-piperidyl]amino]phenyl]-1-piperidyl]acetyl]-4-piperidyl]oxy]phenyl]-4-fluoro-1-oxo-isoindolin-2-yl]-N-thiazol-2-yl-acetamide], for which the DC50 on EGFR L858R-T790M-C797S (setting [1]), on EGFR L858R (Table 9A) and on EGFR L858R-T790M (Table 9A) was < 0.05 µM throughout.
As to `O=C1CC[C@H](Nc2ccc(C3CCN(CC(=O)N4CCC(c5ccc(-c6cc(F)c7c(c6)C(=O)N(C(C(=O)Nc6nccs6)c6ncn8c6CCC8)C7)cc5)CC4)CC3)c(F)c2)C(=O)N1` (stereo partly drawn) [Compound 24, 2-(6,7-dihydro-5H-pyrrolo[1,2-c]imidazol-1-yl)-2-(6-(4-(1-(2-(4-(4-(((S)-2,6-dioxopiperidin-3-yl)amino)-2-fluorophenyl)piperidin-1-yl)acetyl)piperidin-4-yl)phenyl)-4-fluoro-1-oxoisoindolin-2-yl)-N-(thiazol-2-yl)acetamide], the DC50 (in general, the concentration at which degradation of the target reaches its halfway point) is < 0.05 µM on EGFR L858R-T790M-C797S (setting [1]), < 0.05 µM at EGFR L858R (Table 9A) and 0.05 to 0.15 µM on EGFR L858R-T790M (Table 9A).
As to `O=C1CCC(Nc2ccc(C3CCN(CC(=O)N4CCC(Oc5ccc(-c6cc(F)c7c(c6)C(=O)N(C(C(=O)Nc6nccs6)c6ncn8c6CCC8)C7)cc5)CC4)CC3)cc2F)C(=O)N1` (centres unmarked) [Compound 34, 2-(6,7-dihydro-5H-pyrrolo[1,2-c]imidazol-1-yl)-2-(6-(4-((1-(2-(4-(4-((2,6-dioxopiperidin-3-yl)amino)-3-fluorophenyl)piperidin-1-yl)acetyl)piperidin-4-yl)oxy)phenyl)-4-fluoro-1-oxoisoindolin-2-yl)-N-(thiazol-2-yl)acetamide], the DC50 at EGFR L858R-T790M-C797S (setting [1]) is < 0.05 µM; on EGFR L858R (Table 9A), < 0.05 µM; at EGFR L858R-T790M (Table 9A), 0.05 to 0.15 µM.
Turning to `O=C1CCC(Nc2ccc(C3CCN(CC(=O)N4CCN(c5ccc(-c6cc(F)c7c(c6)C(=O)N(C(C(=O)Nc6ccccn6)c6ncn8c6CCC8)C7)cc5)CC4)CC3)c(F)c2)C(=O)N1` (centres unmarked) [Compound 20, 2-(6,7-dihydro-5H-pyrrolo[1,2-c]imidazol-1-yl)-2-[6-[4-[4-[2-[4-[4-[(2,6-dioxo-3-piperidyl)amino]-2-fluoro-phenyl]-1-piperidyl]acetyl]piperazin-1-yl]phenyl]-4-fluoro-1-oxo-isoindolin-2-yl]-N-(2-pyridyl)acetamide], the values for the DC50 on EGFR L858R-T790M-C797S (setting [1]), on EGFR L858R (Table 9A) and at EGFR L858R-T790M (Table 9A) were < 0.05 µM, < 0.05 µM and 0.05 to 0.15 µM, respectively.
As for `Cn1nc(N2CCC(=O)NC2=O)c2ccc([C@@H]3CCN(CC(=O)N4CC5(C4)CN(c4ccc(-c6cc(F)c7c(c6)C(=O)N(C(C(=O)Nc6nccs6)c6ncn8c6CCC8)C7)cc4)C5)CC3(F)F)cc21` (stereo partly drawn) [Compound 94, 2-(6,7-dihydro-5H-pyrrolo[1,2-c]imidazol-1-yl)-2-(6-(4-(6-(2-((S)-4-(3-(2,4-dioxotetrahydropyrimidin-1(2H)-yl)-1-methyl-1H-indazol-6-yl)-3,3-difluoropiperidin-1-yl)acetyl)-2,6-diazaspiro[3.3]heptan-2-yl)phenyl)-4-fluoro-1-oxoisoindolin-2-yl)-N-(thiazol-2-yl)acetamide], the DC50 at EGFR L858R-T790M-C797S (setting [2]), on EGFR L858R (Table 9B) and on EGFR L858R-T790M (Table 9B) was < 0.05 µM throughout.
In the case of `O=C1CCC(Nc2ccc(C3CCN(CC(=O)N4CCC(c5ccc(-c6cc(F)c7c(c6)C(=O)N(C(C(=O)Nc6nccs6)c6ncn8c6CCC8)C7)cc5)CC4)CC3)cc2)C(=O)N1` (centres unmarked) [Compound 21, 2-(6,7-dihydro-5H-pyrrolo[1,2-c]imidazol-1-yl)-2-(6-(4-(1-(2-(4-(4-((2,6-dioxopiperidin-3-yl)amino)phenyl)piperidin-1-yl)acetyl)piperidin-4-yl)phenyl)-4-fluoro-1-oxoisoindolin-2-yl)-N-(thiazol-2-yl)acetamide], the DC50 at EGFR L858R-T790M-C797S (setting [1]), on EGFR L858R (Table 9A) and on EGFR L858R-T790M (Table 9A) was < 0.05 µM each time.
With `O=C1CC[C@H](Nc2ccc(C3CCN(CC(=O)N4CCN(c5ccc(-c6cc(F)c7c(c6)C(=O)N(C(C(=O)Nc6nccs6)c6ncn8c6CCC8)C7)cc5)CC4)CC3)cc2)C(=O)N1` (stereo partly drawn) [Compound 56, 2-(6,7-dihydro-5H-pyrrolo[1,2-c]imidazol-1-yl)-2-[6-[4-[4-[2-[4-[4-[[(3S)-2,6-dioxo-3-piperidyl]amino]phenyl]-1-piperidyl]acetyl]piperazin-1-yl]phenyl]-4-fluoro-1-oxo-isoindolin-2-yl]-N-thiazol-2-yl-acetamide], the DC50 on EGFR L858R-T790M-C797S (setting [1]), on EGFR L858R (Table 9A) and on EGFR L858R-T790M (Table 9A) was < 0.05 µM each time.
As for `O=C1CCC(Nc2ccc(C3CCN(CC(=O)N4CCN(c5ccc(-c6cc(F)c7c(c6)C(=O)N(C(C(=O)Nc6nccs6)c6ncn8c6C[C@@H](F)C8)C7)cc5)CC4)CC3)cc2)C(=O)N1` (mixture of isomers) [Compound 43, (2RS)-2-[6-[4-[4-[2-[4-[4-[[(3RS)-2,6-Dioxo-3-piperidyl]amino]phenyl]-1-piperidyl]acetyl]piperazin-1-yl]phenyl]-4-fluoro-1-oxo-isoindolin-2-yl]-2-[(6R)-6-fluoro-6,7-dihydro-5H-pyrrolo[1,2-c]imidazol-1-yl]-N-thiazol-2-yl-acetamide], the half-maximal degradation concentration (DC50) on EGFR L858R-T790M-C797S (setting [1]), on EGFR L858R (Table 9A) and at EGFR L858R-T790M (Table 9A) was < 0.05 µM in each case.
Consider `O=C1CCC(Nc2ccc(C3CCN(CC(=O)N4CCN(c5ccc(-c6cc(F)c7c(c6)C(=O)N(C(C(=O)Nc6nccs6)c6ncn8c6CCC8)C7)cc5)CC4)CC3)cc2)C(=O)N1` (centres unmarked) [Compound 55, 2-(6,7-dihydro-5H-pyrrolo[1,2-c]imidazol-1-yl)-2-[6-[4-[4-[2-[4-[4-[(2,6-dioxo-3-piperidyl)amino]phenyl]-1-piperidyl]acetyl]piperazin-1-yl]phenyl]-4-fluoro-1-oxo-isoindolin-2-yl]-N-thiazol-2-yl-acetamide], for which the DC50 at EGFR L858R-T790M-C797S (setting [1]), at EGFR L858R (Table 9A) and at EGFR L858R-T790M (Table 9A) was < 0.05 µM throughout.
For `O=C1CC[C@H](Nc2ccc(C3CCN(CC(=O)N4CCN(c5ccc(-c6cc(F)c7c(c6)C(=O)N(C(C(=O)Nc6nccs6)c6ncn8c6C[C@@H](F)C8)C7)cc5)CC4)CC3)c(F)c2)C(=O)N1` (stereo partly drawn) [Compound 44, 2-[6-[4-[4-[2-[4-[4-[[(3S)-2,6-dioxo-3-piperidyl]amino]-2-fluoro-phenyl]-1-piperidyl]acetyl]piperazin-1-yl]phenyl]-4-fluoro-1-oxo-isoindolin-2-yl]-2-[(6R)-6-fluoro-6,7-dihydro-5H-pyrrolo[1,2-c]imidazol-1-yl]-N-thiazol-2-yl-acetamide], the DC50 at EGFR L858R-T790M-C797S (setting [1]), on EGFR L858R (Table 9A) and on EGFR L858R-T790M (Table 9A) was < 0.05 µM throughout.
Take `O=C1CCC(Nc2ccc(N3CCC(O)(CC(=O)N4CCC(NC(=O)c5ccc(C#Cc6cc(F)c7c(c6)C(=O)N(C(C(=O)Nc6nccs6)c6ncn8c6CCC8)C7)cn5)CC4)CC3)c(F)c2)C(=O)N1` (centres unmarked) [Compound 96, 5-((2-(1-(6,7-dihydro-5H-pyrrolo[1,2-c]imidazol-1-yl)-2-oxo-2-(thiazol-2-ylamino)ethyl)-7-fluoro-3-oxoisoindolin-5-yl)ethynyl)-N-(1-(2-(1-(4-((2,6-dioxopiperidin-3-yl)amino)-2-fluorophenyl)-4-hydroxypiperidin-4-yl)acetyl)piperidin-4-yl)picolinamide]: the DC50 at EGFR L858R-T790M-C797S (setting [2]) and on EGFR L858R-T790M (Table 9B) was < 0.05 µM in each case.

(Values after patent US20240158418A1 (C4 Therapeutics, Inc., priority 2021, published 2024).)
